From patent publication US11912723B2, “KRAS modulators and uses thereof” (Quanta Therapeutics, Inc., priority 2022, dated 2024)

What was measured:
[1] = molecular target: T1, GST-tagged KRAS G12D (2-169) (Homo sapiens, UniProt P01116, G12D); assay: Nucleotide exchange assay (NEA), HTRF of SOS-mediated GTP-DY-647P1 binding; format: biochemical; conditions: 5 nM GST-KRAS G12D, 20 nM SOScat, 150 nM GTP; compound 1 h at RT
T1 construct: GST-tagged KRAS^G12D (2-169, Reaction Biology, MSC-11-539); purchased Reaction Biology MSC-11-539 (KRAS G12D); MSC-11-502 (SOS1cat)
Summary of the method: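 After 1 h RT preincubation of compound with KRAS, SOS1cat (20 nM final) and fluorescent GTP analog (150 nM) were added to 5 nM KRAS; HTRF (anti-GST Tb donor) followed at RT for up to 90 min. % inhibition relative to DMSO and no-SOS1 blank, 4-parameter curve fit.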

KRAS G12D/RAF1 = molecular target: T2, KRAS G12D/RAF1 (Homo sapiens, UniProt P01116, G12D); assay: Protein-protein interaction (PPI) HTRF assay KRAS G12D/RAF1; format: binding; conditions: KRAS G12D/RAF1, GppNHp-loaded KRAS; 30 minutes pre-incubation
T2 construct: KRAS (1-169) proteins were expressed in E. coli at 18° C; His6-MBP (N, cleaved yes); made in house; host or cells: E. coli
Summary of the method: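 IC50 values come from the 665/615 HTRF ratio, scaled between no-compound (0% inhibition) and untagged RAF1 (100%). GppNHp-exchanged, biotinylated RAS (1-169) solution at 16 nM met compound for 30 min at room temperature. Then 16 nM His-tagged RAF1 (52-131) donor solution was added and incubated 1 h.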

KRAS G12V/RAF1 = molecular target: T3, KRAS G12V/RAF1 (Homo sapiens, UniProt P01116, G12V); assay: Protein-protein interaction (PPI) HTRF assay KRAS G12V/RAF1; format: binding; conditions: KRASG12V/RAF1
T3 construct: KRAS (1-169) proteins were expressed in E. coli at 18° C; His6-MBP (N, cleaved yes); made in house; host or cells: E. coli
Method: (§1) Biotinylated KRAS wt and KRAS G12DNV proteins were expressed and purified in conditions similar to those previously reported (Tran, et al., 2021) (Zhang, et al., 2020). Briefly, KRAS (1-169) proteins were expressed in E. coli at 18° C. with an upstream TEV cleavage site (ENLFYQS) followed an Avi tag sequence ([…]). KIRAS expression constructs contained both a His6 and maltose-binding protein (MBP) tags at the N-terminus for Ni-NTA column purification prior to overnight TEV cleavage and MBP column purification. The avi-tagged NRAS expression construct contained both a His6 tag and SUMO cleavage sige at the N-terminus for Ni-NTA column purification followed by His-ULP1 digestion overnight. All avi-tagged RAS proteins were dialyzed into buffer containing ATP, biotin, and BirA followed by purification over a second Ni-NTA column and then run over a size exclusion HiLoad™ 26/600 Superdex™ column in 20 mM HEPES, pH 7.5, 300 mM NaCl, 5 mM MgCl2, and 1 mM TCEP. Fractions containing the protein of interest were pooled, concentrated, and confirmed by intact mass spectrometry. To prepare ‘GTP’ loaded KRAS and NRAS, biotinylated KRAS or NRAS was nucleotide exchanged from GDP-bound protein to GppNHp-bound (Jena Biosciences, NU-401-50) protein in the presence of alkaline phosphatase and excess GppNHp as previously described and the resulting nucleotide content was confirmed by HPLC reverse phase analytical chromatography (Donohue, et al., 2019) (Tran, et al., 2021).
(§2) His-tagged RAF1 (52-131) was similarly expressed in E. coli at 18° C. overnight with an upstream TEV cleavage site. His-tagged RAF1 expression construct contained both a His6 and MBP tags at the N-terminus for Ni-NTA column purification followed by MBP-tagged TEV digestion overnight. RAF1 protein samples were further purified over a MBP column followed by a Ni-NTA column and a second MBP column. The fractions containing the protein of interest were pooled, concentrated, and further purified over a HiLoad™ 16/600 Superdex™ 75 pg size exclusion column into 20 mM HEPES, pH8.0, 200 mM NaCl, 5 mM TCEP.
(§3) When RAS proteins are in the active GTP-bound conformation, they bind the effector protein RAF1 at the N-terminus Ras-binding domain (RBD, residues 52-131) (Tran, et al., 2021). Homogenous time resolved fluorescence (HTRF) was used to monitor the interaction between wt or mutant KRAS and RAF1 or wt NRAS and RAFT. Compounds were assayed in the presence of KRAS G12D/V and RAF1 versus wt KRAS to assess activity against mutant and w.t. KRAS. Similarly, compounds were then assayed in the presence of w.t. NRAS and RAF1 to assess RAS isoform selectivity. In all assay formats, His-tagged RAF1 protein was incubated with the HTRF donor, anti-6His Tb Cryptate gold (Cisbio 61DB10RDF), and biotinylated RAS proteins were incubated with the HTRF acceptor, streptavidin-d2 (CisBio 610SADLA). The intensity of the fluorescence signal emitted is proportional to binding between the two proteins. The donor solution was prepared by mixing 16 nM His-tagged RAF1 in protein dilution buffer with 1:100 anti-6His Tb cryptate in PPI-Terbium detection buffer. 16 nM biotinylated RAS protein was diluted into protein dilution buffer (50 mM Tris-HCl pH 7.5, 150 mM NaCl, 0.1 mM MgCl2, 1 mM TCEP, 0.005% Tween20) and mixed with 1:2000 Streptavidin-d2 diluted in PPI-Terbium detection buffer (CisBio 61DB10RDF). 50× compound in DMSO was mixed with 16 nM KRAS-acceptor solution and incubated for 30 minutes at room temperature. After compound pre-incubation with KRAS, the RAF1 donor solution was added to the KRAS-acceptor solution and incubated for 1 hour at room temperature. The fluorescence signal emitted was monitored at 665 nm and 615 nm using an Envision multimode plate reader. The HTRF ratio (665/615) was calculated and normalized to 0% inhibition in the absence of compound and 100% inhibition in the presence of untagged RAF1 protein. […]

wtKRAS/RAF1 = molecular target: T4, wtKRAS/RAF1 (Homo sapiens, UniProt P01116); assay: Protein-protein interaction (PPI) HTRF assay w.t.KRAS/RAF1; format: binding
T4 construct: KRAS (1-169) proteins were expressed in E. coli at 18° C; His6-MBP (N, cleaved yes); made in house; host or cells: E. coli
Method: as §1, §2, §3

wtNRAS/RAF1 = molecular target: T5, wtNRAS/RAF1 (Homo sapiens, UniProt P01111); assay: Protein-protein interaction (PPI) HTRF assay w.t.NRAS/RAF1; format: binding
T5 construct: (1-169); His6-SUMO (N, cleaved yes); made in house; host or cells: E. coli (printed for the KRAS and RAF1 constructs; not explicitly for NRAS)
Method: as §1, §2, §3

[2] = test system: AGS (KRAS G12D) cells, phospho-ERK; assay: pERK In Cell Western (ICW) assay (Method B); format: cell-based; conditions: Homo sapiens, 3 hours
Method: pERK ICW is a high throughput screening assay to evaluate the cellular potency of mutant KRAS small molecule inhibitors. KRAS mutant cell line AGS (KRAS^G12D) were purchased from ATCC and maintained in DMEM and RPMI medium supplemented with 10% fetal bovine serum and Penicillin/Streptomycin.
Cells grown in exponential phase were trypsinized, resuspended in fresh media, and viable cells were counted using a cell counter with Trypan Blue (BioRad TC20). Cells were seeded into 384-well plate (Greiner 781091) at density of 5,000 cells/well for AGS and allowed to grow overnight in a 37° C. CO2 incubator. The next day, compounds were dispensed into wells with a ½ log, 10-point serial dilution and top concentration of 10 μM using Tecan D300e dispenser and incubated for 3 hours in a 37° C. CO2 incubator. Cells were then fixed with paraformaldehyde (Electron Microscopy Sciences, 15710, 4% final concentration) for 30 min, permeabilized with wash buffer (1×PBS+0.1% Triton X-100) for 30 min and blocked with Odyssey blocking buffer (Li—COR 927-70001) for 1 hour, all at room temperature (RT). Phospho-ERK antibody (CST 4370L) was diluted 1:500 in Odyssey blocking+0.2% Tween 20 and incubated with cells overnight at 4° C. The next day, plates were washed 5× with wash buffer, incubated with IRDye 800 CW, Goat anti-Rabbit secondary antibody (Li—COR 926-32211, 1:500) and DRAQ5 (CST 4084L, 1:5,000) diluted in Odyssey blocking+0.2% Tween 20 for 1 hour, washed 5×, and imaged on an Odyssey CLx imaging system.
For data analysis, signal intensities from 800 (phosphor-ERK) and 700 (DRAQ5) channels were extracted, and phospho-ERK signals were normalized to DRAQ5 signals for each well and percent of DMSO control values were computed. Data were then imported into Graphpad Prism to compute half-maximal inhibitory concentrations (IC50) using a 4-parameter variable slope model. Z-factor for each plate was computed from signals derived from wells treated with either DMSO or 5 μM of Trametinib. AGS pERK ICW (Method B) IC50 (uM) values of selected compounds are depicted in Table 2 with compounds having a value 0.001 uM to 0.01 uM as ++++; >0.01 uM to 0.1 uM as +++; >0.1 uM to 1 uM as ++; 1 uM to 10 uM as + and >10 uM as NA.

T1 sequence (P01116 2-169 isoform P01116-2 G12D): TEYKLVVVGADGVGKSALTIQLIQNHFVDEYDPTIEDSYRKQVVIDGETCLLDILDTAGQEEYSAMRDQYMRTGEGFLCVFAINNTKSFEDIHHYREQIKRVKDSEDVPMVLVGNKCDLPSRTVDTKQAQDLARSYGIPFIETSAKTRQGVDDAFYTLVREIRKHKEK
T5 sequence (P01111 1-169): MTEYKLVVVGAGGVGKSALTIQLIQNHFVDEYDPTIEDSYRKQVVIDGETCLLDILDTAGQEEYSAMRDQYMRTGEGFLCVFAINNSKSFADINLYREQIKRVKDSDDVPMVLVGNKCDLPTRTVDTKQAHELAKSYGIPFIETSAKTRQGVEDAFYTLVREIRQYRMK
T3 sequence (P01116 1-169 isoform P01116-2 G12V): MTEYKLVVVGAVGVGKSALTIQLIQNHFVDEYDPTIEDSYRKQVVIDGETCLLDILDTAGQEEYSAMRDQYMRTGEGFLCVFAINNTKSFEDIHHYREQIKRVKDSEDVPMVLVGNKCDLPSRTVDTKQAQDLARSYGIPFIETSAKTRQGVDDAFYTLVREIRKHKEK
T2 sequence (P01116 1-169 isoform P01116-2 G12D): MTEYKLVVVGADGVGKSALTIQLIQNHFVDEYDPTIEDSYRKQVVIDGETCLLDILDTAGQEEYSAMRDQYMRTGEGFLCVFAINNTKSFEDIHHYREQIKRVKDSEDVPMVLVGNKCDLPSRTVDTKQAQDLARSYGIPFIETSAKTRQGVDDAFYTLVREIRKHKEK
T4 sequence (P01116 1-169 isoform P01116-2): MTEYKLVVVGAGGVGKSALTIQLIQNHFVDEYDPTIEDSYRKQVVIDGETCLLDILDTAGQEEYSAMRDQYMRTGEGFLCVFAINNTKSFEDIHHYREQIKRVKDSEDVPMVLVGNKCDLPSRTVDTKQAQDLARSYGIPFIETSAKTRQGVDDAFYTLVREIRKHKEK

Compound	IC50 [1]	IC50 (KRAS G12D/RAF1)	IC50 (KRAS G12V/RAF1)	IC50 (wtKRAS/RAF1)	IC50 (wtNRAS/RAF1)	IC50 [2]
C[C@@]1(O)CCCN(c2nc(OC[C@@]34CCCN3C[C@H](F)C4)nc3c2COC2(CCc4c(Cl)cccc42)C3)C1 (stereo partly drawn) [Compound 23, (3R)-1-(4-chloro-2′-(((2R,7aS)-2-fluorotetrahydro-1H-pyrrolizin-7a(5H)-yl)methoxy)-2,3,5′,8′-tetrahydrospiro[indene-1,7′-pyrano[4,3-d]pyrimidin]-4′-yl)-3-methylpiperidin-3-ol]	1 to 20 µM	10 to 100 µM	10 to 100 µM	> 100 µM	> 100 µM	
O=C1NC(=O)C2(CCCN(c3nc(OC[C@@]45CCCN4C[C@H](F)C5)nc4c3COC3(CCc5c(Cl)cccc53)C4)C2)N1 (stereo partly drawn) [Compound 24, 9-[4′-chloro-2-[[(2R,8S)-2-fluoro-1,2,3,5,6,7-hexahydropyrrolizin-8-yl]methoxy]spiro[5,8-dihydropyrano[4,3-d]pyrimidine-7,1′-indane]-4-yl]-1,3,9-triazaspiro[4.5]decane-2,4-dione]	0.1 to 1 µM	10 to 100 µM	10 to 100 µM	10 to 100 µM	> 100 µM	
CN1Cc2c(nc(OC[C@@]34CCCN3C[C@H](F)C4)nc2N2CCC[C@]3(C2)NC(=O)NC3=O)C[C@]12CCc1c(F)cccc12 [Compound 68, (5R)-9-[(7S)-4′-fluoro-2-[[(2R,8S)-2-fluoro-1,2,3,5,6,7-hexahydropyrrolizin-8-yl]methoxy]-6-methyl-spiro[5,8-dihydropyrido[4,3-d]pyrimidine-7,1′-indane]-4-yl]-1,3,9-triazaspiro[4.5]decane-2,4-dione]	0.01 to 0.1 µM					> 10 µM
CN1Cc2c(nc(OC[C@@]34CCCN3C[C@H](F)C4)nc2N2CCC[C@]3(C2)NC(=O)NC3=O)C[C@]12CCc1cccc(Cl)c12 [Compound 70, (5R)-9-[(7S)-7′-chloro-2-[[(2R,8S)-2-fluoro-1,2,3,5,6,7-hexahydropyrrolizin-8-yl]methoxy]-6-methyl-spiro[5,8-dihydropyrido[4,3-d]pyrimidine-7,1′-indane]-4-yl]-1,3,9-triazaspiro[4.5]decane-2,4-dione]	0.01 to 0.1 µM					1 to 10 µM
